Measured values taken from patent US20140050805A1, “COMPOSITION, GLUCOSE METABOLISM-IMPROVING AGENT, AND METHOD FOR IMPROVING GLUCOSE METABOLISM” (Lion Corporation, priority 2011, published 2014).

Assays:
[1] = system: Hyperglycemia model mice (TSOD mouse); test: Blood glucose level in hyperglycemia model mice (TSOD) bred on mixed feed for 5 days; format: in vivo
Procedure: Mixed feeds of Examples 1 to 3 and Comparative Examples 1 to 4 were prepared by mixing a commercially available feed (trade name: D12450B, product of Research Diet Co.) with Panax notoginseng powder (product of MATSUURA YAKUGYO CO., LTD.) and at least one of Piper longum extract (trade name, LONG PEPPER EXTRACT POWDER MF, composition: 10% by mass of a hot water extract of Piper longum, 90% by mass of dextrin, product of MARUZEN PHARMACEUTICALS CO., LTD.) and vitamin B1 nitrate (product of Wako Pure Chemical Industries, Ltd.) in respective amounts shown in the following Table 1. The above commercially available feed only was used in Comparative Example 4.
Hyperglycemia model mice (TSOD mouse (obtained from Institute for Animal Reproduction), 14 weeks old, 5 mice/group) were given ad libitum each of the mixed feeds of Examples 1 to 3 and Comparative Examples 1 to 4 to breed them for 5 days.
The blood glucose levels at 10 a.m. were measured by the below-described method, before giving the mixed feed to the hyperglycemia model mice (before the start of breeding with the mixed feed) and after giving the mixed feed to the hyperglycemia model mice for 5 days (after the breeding with the mixed feed). A significance test was performed using the Dunnett's multiple test.
Also, the difference between the blood glucose levels before the start of breeding with the mixed feed and after the breeding with the mixed feed (Δblood glucose level) was calculated using the following calculation formula.
Δ Blood glucose level (mg/dL)=Blood glucose level before the start of breeding with the mixed feed (mg/dL)−Blood glucose level after the breeding with the mixed feed (mg/dL)
(§1) The blood glucose level was measured with a simplified blood glucose level measuring system (trade name: CYCLIC GB SENSOR, product of Sanko Junyaku Co., Ltd.).

[2] = system: Hyperglycemia model mice (KKAy mice); test: Blood glucose level in hyperglycemia model mice (KKAy) bred on high fat diet mixed feed for 5 days; format: in vivo, mouse
Procedure: as §1
Mixed feeds of Examples 4 to 7 and Comparative Examples 6 to 8 were prepared by mixing a commercially available high fat diet (trade name: Quick Fat, product of CLEA Japan, Inc.) with the acid-treated Panax notoginseng product produced in Production Example 1 and at least one of Piper longum extract (trade name, LONG PEPPER EXTRACT POWDER MF, composition: 10% by mass of a hot water extract of Piper longum, 90% by mass of dextrin, product of MARUZEN PHARMACEUTICALS CO., LTD.) and vitamin B1 nitrate (product of Wako Pure Chemical Industries, Ltd.) in respective amounts shown in the following Table 2. The mixed feed of Example 8 was prepared by using Panax notoginseng powder (product of MATSUURA YAKUGYO CO., LTD.) instead of the acid-treated Panax notoginseng product of Example 4. The above commercially available high fat diet only was used in Comparative Example 5.
Hyperglycemia model mice (KKAy mice (obtained from CLEA Japan, Inc.), 20 weeks old, 5 mice/group) were given ad libitum each of the mixed feeds of Examples 4 to 8 and Comparative Examples 5 to 8 to breed them for 5 days.
The blood glucose levels at 10 a.m. were measured in the same manner as in Example 1, before giving the mixed feed to the hyperglycemia model mice (before the start of breeding with the mixed feed) and after giving the mixed feed to the hyperglycemia model mice for 5 days (after the breeding with the mixed feed). A significance test was performed using the Dunnett's multiple test.

[3] = level before minus level after 5 days of mixed feed

Compound | Blood glucose levels Before the start of breeding with the mixed feed ([1]; 14 weeks old, 10 a.m., average, baseline before mixed feed) | Δ Blood glucose level [1, 3] | Blood glucose levels After the breeding with the mixed feed ([1]; mixed feed ad libitum for 5 days, 10 a.m., average) | Blood glucose levels Before the start of breeding with the mixed feed ([2]; 20 weeks old, 10 a.m., average, baseline before mixed feed) | Blood glucose levels After the breeding with the mixed feed ([2]; high fat diet mixed feed ad libitum for 5 days, 10 a.m., average) | Δ Blood glucose level [2, 3]
Cc1ncc(C[n+]2csc(CCO)c2C)c(N)n1.O=[N+]([O-])[O-] [compound 2, vitamin B1 nitrate] | 389.2 mg/dL | 43.9 mg/dL | 345.3 mg/dL | – | – | –
Cc1ncc(C[n+]2csc(CCO)c2C)c(N)n1.O=[N+]([O-])[O-] [compound 8, vitamin B1 nitrate] | – | – | – | 551 mg/dL | 501 mg/dL | 50 mg/dL
